Laboratory results from patent US7772252B2, “Heterocyclic substituted carbonyl derivatives and their use as dopamine D3 receptor ligands” (Aventis Pharmaceuticals Inc., priority 2001, dated 2010).

Biological target: T1, cloned human dopamine D3 receptors (Homo sapiens, UniProt P35462)
T1 construct: expressed in transfected cells; membrane homogenate
Experiment: [N-Methyl-3H]Spiroperidol binding to cloned human dopamine D3 receptors
Conditions: read-out: D3 Ki
Source text: [N-Methyl-^3H]Spiroperidol Binding to Cloned Human Dopamine D3 Receptors
This assay measures the in vitro activity of compounds on cloned human dopamine (D3) receptors and predicts the direct dopamine-blocking properties of putative neuropsychiatric agents at human dopamine D3 receptors.
The D3 gene was isolated from a human striatal cDNA library (Stratagene). The gene was sequenced and sub-cloned into the expression vector RC/RSV (Invitrogen). CHO (Chinese Hamster Ovary) cells were stably transfected with 10 μg of the D3/RSV plasmid using the DOTAP method from Boehringer Mannheim and 72 clones that were G418 resistant were isolated. Using mRNA and binding displacement data a single high expressing clone was identified. This clone was then grown in large batches for the purpose of developing a 96 well format assay.
• 1. One plate (10 cm) with approximately 2-3 million D3 cells per plate is incubated with 1 ml of Trypsin-EDTA at room temperature for ˜2 min or until cells have lifted off plates. Four ml of Ham's F12+10% Fetal Bovine Serum+1% Penicillin/Streptomycin+G418 (400 μg/ml) medium are added to resuspend cells and 1 ml of this is added to each large plate (15 cm) containing 19 ml of the same medium as mentioned above. • 2. The 5 large plates are incubated at 37° C.+5% CO2 for ˜3 days or until the cells are confluent. • 3. After these plates are confluent, they are split into 10 large plates. Medium is aspirated off, 2 ml of Trypsin-EDTA are added to each plate and plates are incubated at RT for 2 min or until cells have lifted off the plate. Eight ml of the F12 medium (same medium as #1 above) are added to each plate (10 ml total) to resuspend the cells and 5 ml are transferred to the 2 new plates containing 15 ml of the F12 media. • 4. The 10 large plates are incubated at 37° C.+5% CO2 for ˜2 days or until the cells are confluent. • 5. The 10 large plates are split into 60 large plates (using Trypsin-EDTA as #3 except 4 ml of F12 medium are added to resuspend cells and 1 ml is aliquoted to 6 new plates containing 19 ml of F12 medium each). • 6. Plates are incubated at 37° C.+5% CO2 for ˜3 days or until cell are confluent. • 7. The 60 large plates are then split into 60 roller bottles (100-150 million cells/bottle). Medium is aspirated off, 2 ml of Trypsin-EDTA are added to each plate and incubated at RT for ˜2 minutes or until cells have lifted off plates. Eight ml of F12 medium are added to each plate to resuspend cells and the entire 10 ml are added to 1 roller bottle containing 90 ml of the F12 medium. • 8. The 60 roller bottles are immediately placed on their sides and transferred to the roller bottle incubator. They are incubated at 37° C.+5% CO2 for ˜3-5 days. Cells are spun at 30-40% motor speed in the Form a incubator. • 9. Medium is poured off and cells are washed 2× in PBS. • 10. Cells are then scraped off in 20 ml of PBS and the bottles are rinsed again with 5 ml of PBS to remove any remaining cells. Cells are stored on ice before membrane preparation. • 11. The yield for 60 D3 roller bottles has varied from ˜260-500 mg. • Note: All tissue culture reagents are from Gibco-BRL. C. Membrane Preparation
The cells are harvested into 250 ml centrifuge tubes with 100 volumes of cold phosphate buffered saline (PBS) and spun down (1200×G for 10 min at 4° C.). The medium is removed and 100 ml PBS are added to each centrifuge tube, cells are resuspened and spun down again. The PBS is removed and the final pellet is homogenized in an appropriate volume of 10% DMSO with a polytron on ice at a medium setting.
A 200 μl sample membrane homogenate is added to 200 μl of 1% SDS, vortexed and allowed to stand for 5 min. Aliquots (25, 50 and 100 μl) of this mixture are assayed in duplicate following the standard Bio-Rad DC protein assay protocol (kit catalog number 500-0112) and using reagent S. Absorbance readings are made at 750 nm (note: the most accurate protein OD readings are between 0.1-0.5 units). […]

T1 sequence (P35462 whole entry): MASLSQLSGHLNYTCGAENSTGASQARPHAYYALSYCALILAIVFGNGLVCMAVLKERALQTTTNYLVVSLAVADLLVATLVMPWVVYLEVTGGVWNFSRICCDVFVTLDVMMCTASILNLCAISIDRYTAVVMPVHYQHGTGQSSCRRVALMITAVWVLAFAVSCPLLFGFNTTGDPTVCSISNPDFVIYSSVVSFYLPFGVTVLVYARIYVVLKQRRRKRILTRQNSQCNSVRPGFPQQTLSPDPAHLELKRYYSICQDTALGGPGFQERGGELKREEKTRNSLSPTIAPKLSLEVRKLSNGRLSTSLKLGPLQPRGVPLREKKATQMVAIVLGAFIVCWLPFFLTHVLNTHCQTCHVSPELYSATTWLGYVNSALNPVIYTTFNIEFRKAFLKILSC

SMILES	Ki
O=C([C@@H]1C[C@H]1CN1CCC(c2noc3ccc(C(F)(F)F)cc23)CC1)N1CCCC(Cn2ccnc2)C1 (mixture of isomers) [A002200835]	0.4 nM
O=C([C@@H]1C[C@H]1CN1CCC(c2csc3cc(C(F)(F)F)ccc23)CC1)N1CCCC(Cn2ccnc2)C1 (mixture of isomers) [A002287512]	0.647 nM
O=C([C@@H]1C[C@H]1CN1CCC(c2nsc3cc(Br)ccc23)CC1)N1CCCC(Cn2ccnc2)C1 (mixture of isomers) [A002329099]	2.06 nM
O=C([C@@H]1C[C@H]1CN1CCN(c2csc3cc(C(F)(F)F)ccc23)CC1)N1CCCC(CN2CCCCC2)C1 (mixture of isomers) [A002437357]	14 nM
O=C([C@@H]1C[C@H]1CN1CCN(c2csc3cc(C(F)(F)F)ccc23)CC1)N1CCCC(CN2CCCNCC2)C1 (mixture of isomers) [A002437358]	8.86 nM
CC1CCCCN1C(=O)[C@@H]1C[C@H]1CN1CCC(c2noc3ccsc23)CC1 (mixture of isomers) [compound 829462]	9.65 nM
CN1CCCC1CCNC(=O)[C@@H]1C[C@H]1CN1CCN(c2csc3cc(C(F)(F)F)ccc23)CC1 (mixture of isomers) [compound 831884]	1.94 nM
O=C([C@@H]1C[C@H]1CN1CCN(c2csc3cc(C(F)(F)F)ccc23)CC1)N1CCCC(Cn2ccnc2)C1 (mixture of isomers) [compound 832268]	2.62 nM
O=C([C@@H]1C[C@H]1CN1CCC(c2noc3ccsc23)CC1)N1CCCC(Cn2ccnc2)C1 (mixture of isomers) [compound 832269]	5.1 nM
CC(C)(C)OC(=O)N1CCCCC1CCNC(=O)[C@@H]1C[C@H]1CN1CCN(c2csc3cc(C(F)(F)F)ccc23)CC1 (mixture of isomers) [compound 832500]	161 nM
CC(C)(C)OC(=O)N1CCCC(CNC(=O)[C@@H]2C[C@H]2CN2CCN(c3csc4cc(C(F)(F)F)ccc34)CC2)C1 (mixture of isomers) [compound 832501]	41.4 nM
O=C(NCCC1CCCCN1)[C@@H]1C[C@H]1CN1CCN(c2csc3cc(C(F)(F)F)ccc23)CC1 (mixture of isomers) [compound 832503]	11.1 nM
O=C(NCC1CCCNC1)[C@@H]1C[C@H]1CN1CCN(c2csc3cc(C(F)(F)F)ccc23)CC1 (mixture of isomers) [compound 832504]	5.77 nM
CC(C)(C)OC(=O)N1CCCCC1CCNC(=O)[C@@H]1C[C@H]1CN1CCC(c2noc3ccsc23)CC1 (mixture of isomers) [compound 832533]	4.12 nM
CC1CCCCN1CCCNC(=O)[C@@H]1C[C@H]1CN1CCN(c2csc3cc(C(F)(F)F)ccc23)CC1 (mixture of isomers) [compound 832578]	25.8 nM
CC(=O)N1CCCCC1CCNC(=O)[C@@H]1C[C@H]1CN1CCN(c2csc3cc(C(F)(F)F)ccc23)CC1 (mixture of isomers) [compound 833064]	28.8 nM
COc1cccc2c(C3CCN(C[C@@H]4C[C@H]4C(=O)N4CCCC(Cn5ccnc5)C4)CC3)noc12 (mixture of isomers) [compound 833910]	1.09 nM
O=C([C@@H]1C[C@H]1CN1CCC(c2noc3c(C(F)(F)F)cccc23)CC1)N1CCCC(Cn2ccnc2)C1 (mixture of isomers) [compound 833911]	1.26 nM
COc1ccc2c(c1)c(N1CCN(C[C@@H]3C[C@H]3C(=O)N3CCCC(Cn4ccnc4)C3)CC1)nn2C (mixture of isomers) [compound 834173]	5.15 nM
CCCc1cc(N2CCN(CC3CC3C(=O)NC3CCC(CC)CC3)CC2)nc(C(C)(C)C)n1 (racemic) [compound 817274]	4.49 nM
CC1CCC(NC(=O)C2CC2CN2CCC(n3c(=O)[nH]c4ccccc43)CC2)CC1 (racemic) [compound 827211]	353 nM
CCC1CCC(NC(=O)C2CC2CN2CCC(Cc3ccccc3)CC2)CC1 (racemic) [compound 827248]	19.4 nM
CCC1CCC(NC(=O)C2CC2CN2CCC(n3c(=O)[nH]c4ccccc43)CC2)CC1 (racemic) [compound 827250]	45.2 nM
O=C(C1CC1CN1CCC(c2noc3ccsc23)CC1)N1CCN(c2ncccn2)CC1 (racemic) [compound 827394]	391 nM
Cc1cc(NC(=O)C2CC2CN2CCC(c3noc4ccsc34)CC2)sn1 (racemic) [compound 829463]	4.76 nM
CN1CCN(C(=O)C2CC2CN2CCC(c3noc4ccsc34)CC2)CC1 (racemic) [compound 829590]	109 nM
O=C(C1CC1CN1CCC(c2noc3ccsc23)CC1)N1CCN(C2CCCCC2)CC1 (racemic) [compound 829591]	72.4 nM
CN1CCCN(C(=O)C2CC2CN2CCC(c3noc4ccsc34)CC2)CC1 (racemic) [compound 829597]	226 nM

Second part, the molecule after the results:

Ki	SMILES
4.06 nM	O=C(NC1CCN(C(=O)Nc2ccc(Cl)cc2)CC1)C1CC1CN1CCC(c2noc3ccsc23)CC1 (racemic) [832575ES]
17.5 nM	O=C(NC1CCN(C(=O)Nc2ccc(F)cc2)CC1)C1CC1CN1CCC(c2noc3ccsc23)CC1 (racemic) [832576ES]
88.8 nM	CC1CCC(N2CC(CN3CCN(c4csc5cc(C(F)(F)F)ccc45)CC3)CC2=O)CC1 (racemic) [833953A]
3.34 nM	CCCc1cc(N2CCN(CC3CC3C(=O)NC3CCC(C)CC3)CC2)nc(C(C)(C)C)n1 (racemic) [compound 817275]
150 nM	COc1ccc(N2CCN(CC3CC3C(=O)NC3CCC(C)CC3)C(C)C2)cc1 (racemic) [compound 827192]
177 nM	CC1CCC(NC(=O)C2CC2CN2CCN(Cc3ccccc3)CC2)CC1 (racemic) [compound 827202]
30.4 nM	CC1CCC(NC(=O)C2CC2CN2CCC(Cc3ccccc3)CC2)CC1 (racemic) [compound 827209]
159 nM	CCC1CCC(NC(=O)C2CC2CN2CCN(C(=O)OC(C)(C)C)CC2)CC1 (racemic) [compound 827223]
60.6 nM	CCC1CCC(NC(=O)C2CC2CN2CCN(c3ccc(OC)cc3)CC2C)CC1 (racemic) [compound 827231]
153 nM	CCC1CCC(NC(=O)C2CC2CN2CCN(CCc3ccccc3)CC2)CC1 (racemic) [compound 827237]
152 nM	CCC1CCC(NC(=O)C2CC2CN2CCN(Cc3ccc4c(c3)OCO4)CC2)CC1 (racemic) [compound 827240]
89.5 nM	CCC1CCC(NC(=O)C2CC2CN2CCN(Cc3ccccc3)CC2)CC1 (racemic) [compound 827241]
391 nM	O=C(NCc1ccco1)C1CC1CN1CCC(c2noc3ccsc23)CC1 (racemic) [compound 827393]
31.4 nM	O=C(NC1CC2CCC1C2)C1CC1CN1CCC(c2noc3ccsc23)CC1 (racemic) [compound 827395]
111 nM	O=C(Nc1ccccn1)C1CC1CN1CCC(c2noc3ccsc23)CC1 (racemic) [compound 827397]
63.9 nM	CCC1CCC(NC(=O)C2CC2CN2CCC(c3noc4cc(Cl)ccc34)CC2)CC1 (racemic) [compound 829363]
42.3 nM	O=C(NC1CCCC1)C1CC1CN1CCC(c2noc3ccsc23)CC1 (racemic) [compound 829592]
364 nM	O=C(C1CC1CN1CCC(c2noc3ccsc23)CC1)N1CC=CC1 (racemic) [compound 829594]
201 nM	O=C(C1CC1CN1CCC(c2noc3ccsc23)CC1)N1CCC(Oc2ccc(F)cc2)CC1 (racemic) [compound 829595]
65.3 nM	CC1CCC(NC(=O)C2CCC2CN2CCC(c3noc4ccsc34)CC2)CC1 (racemic) [compound 829830]
